Activity calls are given as the source filed them. The rule behind the calls is not given here.
Tests used:
PRMT5/MEP50 complex [1] = target: T1, PRMT5/MEP50 complex (Homo sapiens, UniProt O14744); assay: Inhibition of recombinant N-terminal FLAG-tagged human full-length PRMT5/full length human MEP50 extracted from baculovirus expression system using [3H]-SAM as substrate preincubated for 15 mins followed by substrate addition and measured after 60 mins by multimode plate reader analysis
PRMT5/MEP50 complex [2] = target: T2, PRMT5/MEP50 complex (Homo sapiens, UniProt O14744+Q9BQA1); assay: Binding affinity to PRMT5/MEP50 (unknown origin) at 5 uM by SPR analysis; assay type: protein-complex assay
PRMT5/MEP50 complex [3] = target: T1, PRMT5/MEP50 complex; assay: Binding affinity to PRMT5/MEP50 (unknown origin) assessed as dissociation constant by SPR analysis; assay type: protein-complex assay
T47D = assay: Antiproliferative activity against human T47D cells measured after 4 to 5 days by CCK-8 assay; assay type: functional, cell-based
NCI-H1975 = assay: Antiproliferative activity against human NCI-H1975 cells measured after 4 to 5 days by CCK-8 assay; assay type: functional, cell-based
[4] = target: Protein arginine N-methyltransferase 5 (Homo sapiens) (UniProt O14744); assay: Inhibition of PRMT5 in human Z138 cells assessed as decrease in symmetric dimethyl arginine level incubated for 48 hrs by Western blot analysis; assay type: cell-based; conditions: dose 0.005-5 µM
Z-138 [5] = assay: Antitumor activity against human Z138 cells xenografted in female SCID.BG nude mouse assessed as tumor growth inhibition at 25 mg/kg, po administered twice a day for 21 days relative to control; assay type: functional; conditions: Z-138, 504 h, time 21 day, read-out: TGI
Z-138 [6] = assay: Antitumor activity against human Z138 cells xenografted in female SCID.BG nude mouse assessed as tumor growth inhibition at 50 mg/kg, po administered twice a day for 21 days relative to control; assay type: functional; conditions: Z-138, 504 h, time 21 day, read-out: TGI
[7] = Toxicity in female SCID.BG […] mouse xenografted with human Z138 cells assessed as body weight loss at 12.5 to 50 mg/kg, po administered twice a day for 21 days; assay type: organism-based; conditions: in vivo, 504 h, dose 12.5-50 mg/kg, time 21 day
[8] = target: Protein arginine N-methyltransferase 5 (Homo sapiens) (UniProt O14744); assay: In vivo inhibition of PRMT5 in female SCID.BG nude mouse xenografted with human Z138 cells assessed as decrease in SmD3me2s level at 12.5 to 50 mg/kg, po administered twice a day for 21 days by Western blotting analysis; assay type: functional, organism-based; conditions: dose 12.5-50 mg/kg, time 21.0 day
[9] = Toxicity in Sprague-Dawley rat assessed as body weight loss at 31.25 to 125 mg/kg, po administered once a day for 14 days; assay type: organism-based; conditions: in vivo, 336 h, dose 31.25-125 mg/kg, time 14 day
[10] = Toxicity in Sprague-Dawley rat assessed as morphological changes in spleen at 31.25 to 125 mg/kg, po administered once a day for 14 days by H and E staining based analysis; assay type: organism-based; conditions: in vivo, 336 h, dose 31.25-125 mg/kg, time 14 day
[11] = Toxicity in Sprague-Dawley rat assessed as structural changes in spleen at 31.25 to 125 mg/kg, po administered once a day for 14 days by H and E staining based analysis; assay type: organism-based; conditions: in vivo, 336 h, dose 31.25-125 mg/kg, time 14 day
[12] = Toxicity in Sprague-Dawley rat assessed as structural changes in bone marrow at 31.25 to 125 mg/kg, po administered once a day for 14 days by H and E staining based analysis; assay type: organism-based; conditions: in vivo, 336 h, dose 31.25-125 mg/kg, time 14 day
[13] = Toxicity in Sprague-Dawley rat assessed as structural changes in thymus at 31.25 to 125 mg/kg, po administered once a day for 14 days by H and E staining based analysis; assay type: organism-based; conditions: in vivo, 336 h, dose 31.25-125 mg/kg, time 14 day
[14] = Toxicity in Sprague-Dawley rat assessed as structural changes in caecum at 31.25 to 125 mg/kg, po administered once a day for 14 days by H and E staining based analysis; assay type: organism-based; conditions: in vivo, 336 h, dose 31.25-125 mg/kg, time 14 day
[15] = Metabolic stability in rat liver microsomes assessed as half-life at 1 uM measured upto 240 mins; assay type: ADME, Microsome
[16] = Protein binding in mouse plasma; assay type: ADME, cell-free; conditions: read-out: PPB (converted)
[17] = Protein binding in Sprague-Dawley rat plasma; assay type: ADME, cell-free; conditions: read-out: PPB (converted)
[18] = Protein binding in dog plasma; assay type: ADME, cell-free, Canis lupus familiaris; conditions: read-out: PPB (converted)
Cytochrome P450 1A2 = Cytochrome P450 1A2 (Homo sapiens, UniProt P05177); assay: Inhibition of CYP1A2 (unknown origin); assay type: ADME
Cytochrome P450 2B6 = Cytochrome P450 2B6 (Homo sapiens, UniProt P20813); assay: Inhibition of CYP2B6 (unknown origin); assay type: ADME
Cytochrome P450 2C8 = Cytochrome P450 2C8 (Homo sapiens, UniProt P10632); assay: Inhibition of CYP2C8 (unknown origin); assay type: ADME
Cytochrome P450 2D6 = Cytochrome P450 2D6 (Homo sapiens, UniProt P10635); assay: Inhibition of CYP2D6 (unknown origin); assay type: ADME
Cytochrome P450 3A4 = Cytochrome P450 3A4 (Homo sapiens, UniProt P08684); assay: Inhibition of CYP3A4 (unknown origin) using midazolam as substrate; assay type: ADME
PRMT5/MEP50 complex [19] = target: T2, PRMT5/MEP50 complex; assay: Binding affinity to PRMT5/MEP50 (unknown origin) assessed as dissociation rate constant (koff) by SPR analysis
Z-138 [20] = assay: Antiproliferative activity against human Z138 cells measured after 7 days by CellTiter-Glo luminescence cell viability assay; assay type: functional, cell-based; conditions: Z-138, 168 h

T1 sequence (O14744 whole entry): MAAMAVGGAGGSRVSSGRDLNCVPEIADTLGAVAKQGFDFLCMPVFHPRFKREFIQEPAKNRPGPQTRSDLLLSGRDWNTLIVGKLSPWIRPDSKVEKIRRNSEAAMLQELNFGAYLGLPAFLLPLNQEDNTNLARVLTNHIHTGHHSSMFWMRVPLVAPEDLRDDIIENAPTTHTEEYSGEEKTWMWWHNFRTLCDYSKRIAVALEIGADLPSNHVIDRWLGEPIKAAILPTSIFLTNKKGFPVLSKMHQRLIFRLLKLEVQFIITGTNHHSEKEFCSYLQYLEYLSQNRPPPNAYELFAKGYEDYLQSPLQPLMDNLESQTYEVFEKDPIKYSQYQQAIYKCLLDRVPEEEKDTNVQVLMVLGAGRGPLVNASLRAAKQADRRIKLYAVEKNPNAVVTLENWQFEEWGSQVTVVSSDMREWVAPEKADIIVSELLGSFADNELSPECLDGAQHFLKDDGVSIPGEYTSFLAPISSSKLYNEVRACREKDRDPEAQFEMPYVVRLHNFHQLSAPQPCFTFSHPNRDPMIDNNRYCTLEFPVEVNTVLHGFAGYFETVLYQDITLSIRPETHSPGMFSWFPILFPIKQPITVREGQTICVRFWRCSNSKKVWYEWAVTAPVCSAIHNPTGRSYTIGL
T1 sequence (Q9BQA1 whole entry, further chain): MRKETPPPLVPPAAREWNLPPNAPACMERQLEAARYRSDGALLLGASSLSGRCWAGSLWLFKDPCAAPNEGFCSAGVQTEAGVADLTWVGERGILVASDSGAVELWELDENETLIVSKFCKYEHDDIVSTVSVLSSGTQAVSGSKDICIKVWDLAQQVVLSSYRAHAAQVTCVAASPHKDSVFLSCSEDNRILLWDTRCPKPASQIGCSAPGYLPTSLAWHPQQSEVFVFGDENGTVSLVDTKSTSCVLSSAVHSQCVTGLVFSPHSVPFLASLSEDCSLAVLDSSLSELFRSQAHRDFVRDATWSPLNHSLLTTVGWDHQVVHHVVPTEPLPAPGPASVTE
Protein arginine N-methyltransferase 5 (Homo sapiens), sequence (O14744 whole entry): as the sequence (O14744 whole entry) above
Cytochrome P450 2D6, sequence (P10635 whole entry): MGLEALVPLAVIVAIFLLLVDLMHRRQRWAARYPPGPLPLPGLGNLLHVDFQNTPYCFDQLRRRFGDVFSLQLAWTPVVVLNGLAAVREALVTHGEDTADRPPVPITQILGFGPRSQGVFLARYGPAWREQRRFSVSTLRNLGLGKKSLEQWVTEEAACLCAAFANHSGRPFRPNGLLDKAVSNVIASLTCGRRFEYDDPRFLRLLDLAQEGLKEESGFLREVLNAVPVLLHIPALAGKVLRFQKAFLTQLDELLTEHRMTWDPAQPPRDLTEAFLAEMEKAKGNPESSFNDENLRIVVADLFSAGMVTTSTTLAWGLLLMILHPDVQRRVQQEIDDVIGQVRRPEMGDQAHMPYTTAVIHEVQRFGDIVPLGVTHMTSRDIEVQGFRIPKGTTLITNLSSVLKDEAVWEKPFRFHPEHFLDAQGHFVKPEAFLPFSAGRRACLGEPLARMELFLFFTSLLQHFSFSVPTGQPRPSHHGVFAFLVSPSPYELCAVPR
Cytochrome P450 1A2, sequence (P05177 whole entry): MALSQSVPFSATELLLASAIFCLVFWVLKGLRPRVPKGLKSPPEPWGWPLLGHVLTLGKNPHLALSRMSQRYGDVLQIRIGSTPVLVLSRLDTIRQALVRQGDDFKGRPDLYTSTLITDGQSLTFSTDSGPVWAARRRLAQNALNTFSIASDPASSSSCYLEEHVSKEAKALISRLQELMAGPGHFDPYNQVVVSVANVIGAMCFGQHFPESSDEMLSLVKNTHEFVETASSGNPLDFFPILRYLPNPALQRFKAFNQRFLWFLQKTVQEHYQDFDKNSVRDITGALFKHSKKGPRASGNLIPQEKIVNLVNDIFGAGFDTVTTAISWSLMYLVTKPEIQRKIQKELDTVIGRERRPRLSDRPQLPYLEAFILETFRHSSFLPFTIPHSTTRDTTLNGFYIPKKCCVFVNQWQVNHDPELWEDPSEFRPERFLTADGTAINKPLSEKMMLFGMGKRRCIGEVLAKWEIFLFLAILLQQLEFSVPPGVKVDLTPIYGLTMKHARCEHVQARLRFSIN
Cytochrome P450 2B6, sequence (P20813 whole entry): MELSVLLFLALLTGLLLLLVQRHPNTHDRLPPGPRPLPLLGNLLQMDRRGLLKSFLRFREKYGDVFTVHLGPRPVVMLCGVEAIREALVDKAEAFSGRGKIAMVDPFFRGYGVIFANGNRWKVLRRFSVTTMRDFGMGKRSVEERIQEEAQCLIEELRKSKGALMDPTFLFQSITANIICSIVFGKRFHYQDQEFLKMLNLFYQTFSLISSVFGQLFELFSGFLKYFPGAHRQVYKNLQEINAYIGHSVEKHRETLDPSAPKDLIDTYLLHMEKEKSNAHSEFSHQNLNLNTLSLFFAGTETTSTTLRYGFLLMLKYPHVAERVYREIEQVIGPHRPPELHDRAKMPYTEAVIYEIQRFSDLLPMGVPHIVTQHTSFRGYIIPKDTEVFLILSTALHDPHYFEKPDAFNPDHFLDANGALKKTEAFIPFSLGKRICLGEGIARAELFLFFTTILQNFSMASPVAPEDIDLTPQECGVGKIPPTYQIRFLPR
T2 sequence (O14744 whole entry): as the sequence (O14744 whole entry) above
T2 sequence (Q9BQA1 whole entry): as the sequence (Q9BQA1 whole entry, further chain) above
Cytochrome P450 3A4, sequence (P08684 whole entry): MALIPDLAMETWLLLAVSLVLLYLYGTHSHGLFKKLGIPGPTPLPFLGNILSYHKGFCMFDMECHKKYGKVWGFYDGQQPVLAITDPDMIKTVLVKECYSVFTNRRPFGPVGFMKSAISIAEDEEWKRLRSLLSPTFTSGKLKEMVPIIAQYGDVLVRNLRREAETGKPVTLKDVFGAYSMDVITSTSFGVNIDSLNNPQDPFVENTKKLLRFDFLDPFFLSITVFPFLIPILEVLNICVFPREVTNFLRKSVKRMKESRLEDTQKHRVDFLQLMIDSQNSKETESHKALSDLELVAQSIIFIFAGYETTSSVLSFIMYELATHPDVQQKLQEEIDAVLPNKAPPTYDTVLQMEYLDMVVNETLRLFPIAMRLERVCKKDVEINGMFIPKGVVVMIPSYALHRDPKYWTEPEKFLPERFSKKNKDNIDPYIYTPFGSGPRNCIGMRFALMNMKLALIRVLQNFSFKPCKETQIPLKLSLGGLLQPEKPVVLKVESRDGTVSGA
Cytochrome P450 2C8, sequence (P10632 whole entry): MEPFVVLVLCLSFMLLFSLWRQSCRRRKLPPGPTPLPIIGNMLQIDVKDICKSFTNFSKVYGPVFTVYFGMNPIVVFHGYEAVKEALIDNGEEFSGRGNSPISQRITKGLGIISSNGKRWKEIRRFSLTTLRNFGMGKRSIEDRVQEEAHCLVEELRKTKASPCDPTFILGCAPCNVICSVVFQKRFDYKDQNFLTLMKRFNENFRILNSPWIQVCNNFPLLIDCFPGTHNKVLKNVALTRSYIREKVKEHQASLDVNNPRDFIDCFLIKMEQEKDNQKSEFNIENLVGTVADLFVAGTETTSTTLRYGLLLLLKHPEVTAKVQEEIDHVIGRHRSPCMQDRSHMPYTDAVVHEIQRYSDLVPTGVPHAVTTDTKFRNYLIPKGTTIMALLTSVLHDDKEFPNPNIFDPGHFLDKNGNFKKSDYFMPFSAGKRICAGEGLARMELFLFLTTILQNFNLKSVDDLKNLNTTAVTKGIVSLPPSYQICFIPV

For `CC(=O)N1CC2(CC(Nc3cc4c(cn3)C3(CC3)CN(C[C@H](O)CN3CCc5ccccc5C3)C4=O)C2)C1`, the IC50 (PRMT5/MEP50 complex [1]) was 20.7 nM, the Activity (PRMT5/MEP50 complex [2]) was “Active” and the Kd (PRMT5/MEP50 complex [3]) was 104 nM. For the same compound, the IC50 (T47D) was 2.25 nM, the IC50 (NCI-H1975) was 0.95 nM and the inhibition [4] was “Dose-dependent-effect”. For the same compound, the inhibition in vivo at 25 mg/kg (Z-138 [5]) was 106%, the inhibition in vivo at 50 mg/kg (Z-138 [6]) was 106% and the Activity [7] was “Non-toxic”. For the same compound, the inhibition [8] was “Active; More Potent Than Gsk3326595”, the Activity [9] was “Non-toxic” and the Activity [10] was “Non-toxic”. The Activity [11] was “Non-toxic”, the Activity [12] was “Non-toxic” and the Activity [13] was “Non-toxic”. The Activity [14] was “Non-toxic”, the half-life at 1 µM [15] was 1.43 h and the fraction unbound [16] was 0.0701. It also gave a fraction unbound [17] of 0.04, a fraction unbound [18] of 0.0204 and an IC50 (Cytochrome P450 1A2) greater than 50000 nM. It also gave an IC50 (Cytochrome P450 2B6) greater than 50000 nM, an IC50 (Cytochrome P450 2C8) greater than 50000 nM and an IC50 (Cytochrome P450 2D6) greater than 50000 nM. For the same compound, the IC50 (Cytochrome P450 3A4) was greater than 50000 nM and the koff (PRMT5/MEP50 complex [19]) was 3.62 10^-2/s.
`CC(=O)N1CCC(Nc2cc(C(=O)NC[C@H](O)CN3CCc4ccccc4C3)ncn2)CC1` [PEMRAMETOSTAT] gave an IC50 (Z-138 [20]) of 25.8 nM.

From ChEMBL document CHEMBL6087464, “Design, Synthesis, and Biological Evaluation of 3,4-Dihydroisoquinolin-1(2H)-one Derivatives as Protein Arginine Methyltransferase 5 Inhibitors for the Treatment of Non-Hodgkin's Lymphoma” (J Med Chem, 2025)
